Source: US7011844B2 (Alza Corporation, priority 1996, dated 2006)

Assays:
[1] = Method: The experiment was carried out using standard glass diffusion cells which consist of a donor compartment with a 7.5 ml capacity, and a receptor compartment with a 22 ml capacity. A circular piece of epidermis was placed in each diffusion cell (permeation area=2.27 cm^2) in a horizontal position between a lower capped receptor compartment and an upper capped donor compartment. The receptor compartment has both a venting tube (uncapped) and a sampling port (capped). The stratum corneum side of the epidermis faced the donor compartment. An O-ring was positioned between the epidermis and the donor compartment, and a clamp held the compartments together. The receptor solution, 22 ml of 0.001 M phosphoric acid solution, pH 3.2, was added to each receptor compartment. The cells were placed in a temperature controlled water bath shaker at 35° C. and allowed to come to temperature before the donor solution was added.
At each time interval, the receptor solution was removed from the test cell and replaced with an equal volume of fresh receptor solution previously equilibrated at 35° C. […] From the drug concentration and the volume of the receptor solutions, the area of permeation and the time interval, the flux of the drug through the epidermis was calculated as follows: (drug concentration×volume of receptor)/(area×time)=flux (μg/cm^2·hr).
Transdermal fluxes were obtained using human epidermis at 35° C. in standard diffusion cells using the procedure set forth in Example 1. FIG. 6 graphically depicts the results.
Transdermal fluxes were obtained using human epidermis at 35° C. in standard diffusion cells using the procedure set forth in Example 1.

skin = skin irritation on transdermal administration (inventors' finding); format: in vivo
Text: According to this preferred embodiment, a pharmaceutically acceptable salt of fluoxetine is coadministered with an anti-irritant, preferably a corticosteroid such as hydrocortisone.
Other salts which provide the necessary flux and irritation levels can be determined in accordance with the principles of the teachings of this invention.

[2] = administered orally as fluoxetine hydrochloride (Prozac), 10 mg or 20 mg daily doses, cited from earlier work

Row | effect of methyl laurate by itself on fluoxetine flux ([1]; 10% fluoxetine base in oil/petrolatum with 0-10% methyl laurate, FIG. 6) | increase of fluoxetine flux by addition of GML ([1]; 10% fluoxetine base in oil/petrolatum with 2.5-10% GML, FIG. 5) | effect of the combination of methyl laurate and GML on fluoxetine flux ([1]; 10% fluoxetine base in oil/petrolatum with 5% methyl laurate and 0-10% GML, FIG. 7, compared with GML or methyl laurate individually) | Compound | skin irritation when administered transdermally (skin; in vivo) | elimination half-life, averaging ([2]; average) [days] | elimination half-life [2] [days] | skin irritation when administered transdermally (skin; transdermal administration, base or salt form as labelled)
1 | did not significantly increase | two to five fold | synergistic effect | CNCCC(Oc1ccc(C(F)(F)F)cc1)c1ccccc1 (racemic) [fluoxetine, (±)-N-methyl-γ-[4-(trifluoromethyl)-phenoxy] benzenepropanamine] | moderately to severely irritating | 2 to 3 | 1 to 9 | –
2 | – | – | – | fluoxetine acetate | – | – | – | reduced irritation levels
